Measured values reported in US20100311107A1, “Ultra-High Throughput Screening of Natural Products” (priority 2004, published 2010).
Where two headings read alike, the source gives them in different places.

Tests used:
Format in all cases: cell-based, Escherichia coli
E. coli MG1655 = system: E. coli MG1655; design: unit not given here
Description: (§1) The screening strain, DR1234, was established after all desired drug-resistant genes listed in Table 5 had been delivered into the parent E. coli strain, MG1655, by methods described above. Its level of drug resistance was analyzed by the standard minimum inhibitory concentration (MIC) assay in MHB liquid medium (Chantot, et al., 1986, “Antibacterial activity of roxithromycin: a laboratory evaluation,” J. Antibiot, 39(5):660-8) and the result was summarized in Table 7.
(§2) The level of drug resistance of CM166 was estimated by MIC assay carried out in MHB liquid medium and the results were summarized in Table 9. CM166 is resistant to antibacterial agents whose resistant genes have been incorporated into the strain, but not to other antibacterial drugs whose resistant genes are not incorporated.
(§3) The level of drug-resistance of screening strain DR1212 was analyzed by standard MIC assay in MHB liquid medium and the result was summarized in Table 11. Similar to screening strains, DR1234 and CM166, DR1212 is also resistant to drugs whose resistant genes have been introduced.
(§4) The level of drug resistance of these screening strains (both intermediates and finals) was evaluated by standard MIC assay in MHB liquid medium and the result of Strain CM242 is summarized in Table 12.
(§5) The level of drug resistance of screening strains CM400 and CM435 was evaluated by standard MIC assay in MHB liquid medium and the results are summarized in Table 13. According to the MIC results, CM435 is hypersensitive to Bleomycin, Daunorucibin, Coumermycin A1 and Erythromycin. Screening strain CM435 and others, which are hypersensitive to certain types of antimicrobial agents, are advantageous in detecting bioactive compounds with low concentration in the screening system.

[1] = system: E. coli screening strain DR1234; design: unit not given here
Description: as §1

[2] = system: E. coli screening strain CM166; design: unit not given here; details: Table 9, MHB medium
From the text: as §2

[3] = system: E. coli screening strain CM400; design: unit not given here; details: Table 13, MHB medium
Description: as §5

[4] = system: E. coli screening strain DR1212; design: unit not given here
Description: as §3

[5] = system: E. coli screening strain CM242; design: unit not given here; details: second Table 12, MHB medium
Description: as §4

[6] = system: E. coli screening strain CM435; design: Minimal inhibitory concentrations (MIC90) CM435: unit not given here; details: for Minimal inhibitory concentrations (MIC90) CM435: Table 13, MHB medium; for sensitivity of CM435 according to the MIC results: MHB liquid medium

SMILES	Minimal inhibitory concentrations (MIC90) MG1655 (E. coli MG1655; Table 7, MHB medium)	Minimal inhibitory concentrations (MIC90) MG1655 (E. coli MG1655; Table 9, MHB medium)	Minimal inhibitory concentrations (MIC90) MG1655 (E. coli MG1655; Table 11, MHB medium)	Minimal inhibitory concentrations (MIC90) MG1655 (E. coli MG1655; Table 13, MHB medium)	Minimal inhibitory concentrations (MIC90) MG1655 (E. coli MG1655; second Table 12, MHB medium)	Minimal inhibitory concentrations (MIC90) DR1234 ([1]; Table 7, MHB medium)	Minimal inhibitory concentrations (MIC90) CM166 [2]	Minimal inhibitory concentrations (MIC90) CM400 [3]	Minimal inhibitory concentrations (MIC90) DR1212 ([4]; Table 11, MHB medium)	Minimal inhibitory concentrations (MIC90) CM242 [5]	Minimal inhibitory concentrations (MIC90) CM435 [6]	sensitivity of CM435 according to the MIC results [6]	Minimal inhibitory concentrations (MIC90) DR1234 [1]	Minimal inhibitory concentrations (MIC90) DR1212 [4]
CC1(C)S[C@@H]2[C@H](NC(=O)[C@H](N)c3ccccc3)C(=O)N2[C@H]1C(=O)O [Ampicillin]	1.6-3.2	1.6-3.2	1.6-3.2	8	1.6-3.2	>400	>400	>64	>400	>400	>64	–	–	–
CN[C@@H]1[C@@H](O[C@H]2O[C@H](CO)[C@@H](N)[C@H](O)[C@H]2O)OC2C[C@@H](N)[C@@H](O[C@H]3[C@H](O)[C@@H](O)[C@H](N)C[C@@H]3N)OC2[C@@H]1O (stereo partly shown) [Apramycin]	3.2-6.3	3.2-6.3	3.2-6.3	4	3.2-6.3	400	200	64	1.6	400	>64	–	–	–
C[C@H]1[C@H](NC(=O)/C(=N\OC(C)(C)C(=O)O)c2csc(N)n2)C(=O)N1S(=O)(=O)O [Aztreonam]	0.1	0.1	0.1	0.06	0.1	≦0.05	≦0.05	<0.06	≦0.05	0.3	–	–	–	–
O=C(N[C@H](CO)[C@H](O)c1ccc([N+](=O)[O-])cc1)C(Cl)Cl [Chloramphenicol]	3.2	3.2	3.2	8	3.2	100	100	>64	400	100	>64	–	–	–
CO[C@H]1[C@H](OC(=O)c2ccc(C)[nH]2)[C@H](O)[C@@H](Oc2ccc3c(O)c(NC(=O)c4c[nH]c(C(=O)Nc5c(O)c6ccc(O[C@H]7OC(C)(C)[C@@H](OC)[C@H](OC(=O)c8ccc(C)[nH]8)[C@@H]7O)c(C)c6oc5=O)c4C)c(=O)oc3c2C)OC1(C)C [Coumermycin A1]	12.5	12.5	12.5	>64	12.5	3.2	6.3	64	3.2	6.3	4	hypersensitive	–	–
NC[C@@H]1CC[C@@H](N)[C@@H](O[C@H]2[C@H](O)[C@@H](O[C@H]3O[C@H](CO)[C@@H](O)[C@H](N)[C@H]3O)[C@H](N)C[C@@H]2N)O1 [Dibekacin]	–	–	–	–	3.2	–	–	–	–	400	–	–	–	–
CC[C@H]1OC(=O)[C@H](C)[C@@H](O[C@H]2C[C@@](C)(OC)[C@@H](O)[C@H](C)O2)[C@H](C)[C@@H](O[C@@H]2O[C@H](C)C[C@H](N(C)C)[C@H]2O)[C@](C)(O)C[C@@H](C)C(=O)[C@H](C)[C@@H](O)[C@]1(C)O [Erythromycin]	25	25	25	>64	25	100	100	64	50	25	4	hypersensitive	–	–
NC[C@H]1O[C@H](O[C@H]2[C@H](O)[C@@H](O[C@H]3O[C@H](CO)[C@@H](O)[C@H](N)[C@H]3O)[C@H](N)C[C@@H]2N)[C@H](O)[C@@H](O)[C@@H]1O [Kanamycin]	–	–	–	–	–	–	>400	>64	–	>400	>64	–	>400	400
CCN[C@@H]1C[C@H](N)[C@@H](O[C@H]2OC(CN)=CC[C@H]2N)[C@H](O)[C@H]1O[C@H]1OC[C@](C)(O)[C@H](NC)[C@H]1O [Netilmycin]	1.6	1.6	1.6	0.5	1.6	200	400	>64	400	200	64	–	–	–
CO[C@H]1/C=C/O[C@@]2(C)Oc3c(C)c(O)c4c(O)c(cc(O)c4c3C2=O)NC(=O)/C(C)=C\C=C\[C@H](C)[C@H](O)[C@@H](C)[C@@H](O)[C@@H](C)[C@H](OC(C)=O)[C@@H]1C [Rifamycin]	–	–	–	16	–	–	–	>64	–	–	16	–	–	–
NC[C@H]1O[C@H](O[C@H]2[C@H](O)[C@@H](O[C@H]3O[C@H](CO)[C@@H](O)[C@H](N)[C@H]3O)[C@H](N)C[C@@H]2N)[C@H](N)C[C@@H]1O [Tobramycin]	0.4	0.4	0.4	–	0.4	50	>400	–	25	100	–	–	–	–
